How the values were obtained:
[1] = test system: JH2 pseudokinase domain of TYK2; conditions: background statement; cited from earlier work
[2] = test system: TYK2 signaling pathway (IFN-α/pSTAT1); assay: IFN-α-induced STAT1 phosphorylation in mouse whole blood; format: cell-based; conditions: CD3+ cells
Protocol: The purpose of this experiment was to detect the inhibitory effect of the compound on the JAK-STAT signaling pathway activated by IFN-α in mouse whole blood. Fresh mouse whole blood was collected and placed in a 96-well plate. The test compound was added and incubated for 1 hour, followed by stimulation with IFN-α. The corresponding STAT1 phosphorylation level in the CD3^+ cell population was analyzed using flow cytometer by means of surface antibody staining and intracellular phosphorylated antibody staining. The IFN-α-induced STAT1 phosphorylation in mouse whole blood is dependent on TYK2 activity. By detecting the inhibitory activity of the compound on downstream […] phosphorylation, the half maximal inhibitory concentration (IC50) of the compound on TYK2 signaling pathway activity can be determined.
• a) The compound was prepared into a 10 mM solution with dimethyl sulfoxide (DMSO), and diluted in DMSO to a solution with various concentrations, 500 times the final concentration. • b) 5 μL of the diluted compound was transferred to 120 μL of phosphate buffered saline (PBS) containing 0.1% bovine serum albumin (BSA). • c) Positive and negative control groups were set up, with both finally containing 0.2% DMSO.
• a) 67.5 μL of mouse whole blood was added to each well of a 96-well cell culture plate. • b) 3.5 μL of the diluted compound was added thereto and mixed thoroughly. • c) The plate was incubated in a 37° C. incubator for 60 minutes. • d) Mouse interferon recombinant protein was diluted 125-fold in PBS containing 0.1% BSA, and anti-mouse CD3 antibody was diluted 5-fold in PBS containing 0.1% BSA. 5 μL of diluted anti-mouse CD3 antibody and 4 μL of diluted mouse interferon recombinant protein were added to each well. • e) The plate was incubated in a 37° C. incubator for 30 minutes. • f) All cells were transferred to a 96-well deep well plate, and 1 mL of 37° C. pre-warmed 1× lysis/fixation buffer was added thereto. • g) The cells were incubated in the dark at 37° C. for 10 minutes. • h) After centrifugation at 600 g for 5 minutes, the supernatant was discarded, and the cells were washed twice with 1 mL of PBS by centrifugation. • i) 0.4 mL per well of permeabilization buffer was added to the cell pellet and mixed thoroughly. The cells were incubated in the dark at 4° C. for 30 minutes. • j) After centrifugation at 600 g for 5 minutes, the supernatant was discarded, and the cells were washed twice with 1 mL of flow cytometry staining buffer (PBS+0.2% BSA+1 mM EDTA) by centrifugation. • k) Anti-STAT1 antibody was diluted 65-fold in flow cytometry staining buffer, and added to cell-containing wells at 100 μL per well and mixed thoroughly. • l) The cells were incubated at room temperature for 40 minutes. • m) 1 mL per well of flow cytometry staining buffer was added, and the cells were washed twice by centrifugation at 600 g for 5 minutes. • n) The supernatant was discarded, and the cell pellet was resuspended in 300 μL of flow cytometry staining buffer. • o) The samples were loaded for analysis using the Beckman CytoFlex flow cytometer.
Data were analyzed using FlowJo software. Curve fitting was performed and the IC50 was calculated using GraphPad Prism 8 software.

[3] = biological target: Ba/F3-FL-TYK2-E957D cells (Homo sapiens, UniProt P29597, E957D, cells depend on it); assay: Proliferation of Ba/F3-FL-TYK2-E957D cells (CellTiter-Glo); format: cell-based, mouse; conditions: 72 hours, read-out: Half maximal inhibitory concentration IC50 for cells Ba/F3-FL-TYK2-E957D
Description: (§1) Adenosine triphosphate (ATP) serves as a universal energy carrier in various life processes, representing the smallest unit of energy storage and transfer. The CellTiter-Glo™ Luminescent Cell Viability Assay Kit utilizes luciferase as a detection agent. During the luminescent process, luciferase requires the participation of ATP. By adding CellTiter-Glo™ reagent to the cell culture medium and measuring the luminescence, the light signal was directly proportional to the amount of ATP in the system, and ATP was positively correlated with the number of viable cells. Therefore, cell proliferation can be detected by measuring ATP content using the CellTiter-Glo kit. In this test, the cell lines used were Ba/F3-FL-TYK2-E957D and Ba/F3-TEL-TYK2. Ba/F3-FL-TYK2-E957D cells can stably express the exogenously introduced human TYK2-E957D gene, and the TYK2-E957D gene sequence contains both JH1 and JH2 domains. On the other hand, Ba/F3-TEL-TYK2 cells can stably express the exogenously introduced human TEL-TYK2 gene, and the TEL-TYK2 gene sequence contains only the JH1 domain of TYK2.
(§2) The cell lines were cultured in an incubator at 37° C. with 5% CO2. Regular passaging was performed, and cells in the logarithmic growth phase were selected for plating.
(§3) • a) The test compounds were prepared into a 10 mM solution with DMSO, and then diluted to 0.3 or 1 mM with DMSO. • b) Preparation of 1000× compound storage plate (tube): The compounds were 3-fold serially diluted from the highest concentration to the lowest concentration, creating 9 different concentrations. • c) Preparation of 20× compound working solution: 49 μL of cell culture medium was added to a flat-bottomed 96-well transparent drug plate. From the 1000× compound storage plate, 1 μL of the compound was pipetted into the cell culture medium in the 96-well transparent drug plate. In the solvent control, 1 μL of DMSO was added. After the compound or DMSO was added, the mixture was homogenized using a multi-channel pipette.
(§4) • a) Cells were stained with trypan blue and viable cells were counted to ensure a cell viability of 90% or more. • b) 95 μL of cell suspension (2000 cells/well) was added to each well of the compound assay cell plate, and cell-free culture medium containing 0.1% DMSO was added to the Min control wells. • c) Administration in the compound assay cell plate: 5 μL of 20× compound working solution was added to the cell culture plate. 5 μL of DMSO-cell culture medium mixture was added to the Max control wells. The final concentration of DMSO was 0.1%. • d) The culture plate was then incubated in an incubator at 37° C. with 5% CO2 for 72 hours.
(§5) The following steps were conducted in accordance with the instructions of the Promega CellTiter-Glo Luminescent Cell Viability Assay Kit (Promega-G7573). • a) CellTiter-Glo buffer was thawed and brought to room temperature. • b) CellTiter-Glo substrate was also brought to room temperature. • c) CellTiter-Glo buffer was added to a bottle of CellTiter-Glo substrate to dissolve the substrate, thereby preparing CellTiter-Glo working solution. • d) The mixture was slowly vortexed and shaken to be fully dissolved. • e) The cell culture plate was removed and allowed to equilibrate to room temperature for 10 minutes. • f) 50 μL (equal to half the volume of cell culture medium in each well) of CellTiter-Glo working solution was added to each well. • g) The culture plate was shaken on an orbital shaker for 2 minutes to induce cell lysis. • h) The plate was then left at room temperature for 10 minutes to stabilize the luminescent signal. • i) The luminescent signal was detected using a SpectraMax Paradigm plate reader.
(§6) Data analysis was conducted using GraphPad Prism 5.0 software. Nonlinear S-curve regression was employed to fit the data and generate dose-response curves. From these curves, the IC50 values were calculated.

[4] = test system: Ba/F3-TEL-TYK2 cells; assay: Proliferation of Ba/F3-TEL-TYK2 cells (CellTiter-Glo); format: cell-based; conditions: 72 hours, read-out: Half maximal inhibitory concentration IC50 for cells Ba/F3-TEL-TYK2
Description: as §1, §2, §3, §4, §5, §6

Ba/F3-FL-TYK2-E957D cells, sequence (P29597 whole entry E957D): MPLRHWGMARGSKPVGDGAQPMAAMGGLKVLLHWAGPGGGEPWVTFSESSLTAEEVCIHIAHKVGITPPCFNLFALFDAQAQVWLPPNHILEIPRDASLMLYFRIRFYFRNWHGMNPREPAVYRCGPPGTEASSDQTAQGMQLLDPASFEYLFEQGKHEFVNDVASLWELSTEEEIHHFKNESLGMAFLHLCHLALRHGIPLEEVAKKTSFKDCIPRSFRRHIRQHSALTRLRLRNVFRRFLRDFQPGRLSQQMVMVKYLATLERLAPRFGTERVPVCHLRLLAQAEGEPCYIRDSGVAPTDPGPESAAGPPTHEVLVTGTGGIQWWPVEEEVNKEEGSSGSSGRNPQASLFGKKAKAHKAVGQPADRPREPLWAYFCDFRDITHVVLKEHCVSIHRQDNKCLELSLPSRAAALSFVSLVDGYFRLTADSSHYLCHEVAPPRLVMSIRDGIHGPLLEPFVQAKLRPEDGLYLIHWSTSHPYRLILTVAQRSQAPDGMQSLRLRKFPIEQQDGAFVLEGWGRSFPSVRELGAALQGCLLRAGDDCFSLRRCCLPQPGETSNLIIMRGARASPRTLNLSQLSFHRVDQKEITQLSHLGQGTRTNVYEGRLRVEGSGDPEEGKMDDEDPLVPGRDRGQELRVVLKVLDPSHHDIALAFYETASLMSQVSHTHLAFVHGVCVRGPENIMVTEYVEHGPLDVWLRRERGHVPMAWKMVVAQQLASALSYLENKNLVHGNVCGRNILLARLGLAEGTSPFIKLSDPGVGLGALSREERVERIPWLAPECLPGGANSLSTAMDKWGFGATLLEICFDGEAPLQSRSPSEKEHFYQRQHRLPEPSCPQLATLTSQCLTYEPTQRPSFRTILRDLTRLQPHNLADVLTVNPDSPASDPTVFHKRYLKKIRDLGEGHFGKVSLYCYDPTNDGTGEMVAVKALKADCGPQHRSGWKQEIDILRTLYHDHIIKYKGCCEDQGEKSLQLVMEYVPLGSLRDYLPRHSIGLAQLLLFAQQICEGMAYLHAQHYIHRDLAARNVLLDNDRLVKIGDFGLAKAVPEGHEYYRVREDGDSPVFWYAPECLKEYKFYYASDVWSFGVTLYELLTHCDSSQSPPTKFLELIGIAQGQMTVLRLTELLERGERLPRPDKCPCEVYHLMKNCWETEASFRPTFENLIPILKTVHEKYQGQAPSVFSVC

Row | IC50 [2] | GI50 [3] | IC50 [4] | Compound | kinase selectivity [1]
1 |  |  |  | [2H]C([2H])([2H])NC(=O)c1nnc(NC(=O)C2CC2)cc1Nc1cccc(-c2ncn(C)n2)c1OC [BMS-986165] | > 1000 fold
2 | 93.2 nM | 0.1 nM | > 10000 nM | COc1c(Nc2cc(NC(=O)C3CC3)ncc2C(N)=O)cccc1-c1ccc(S(=O)(=O)C(C)C)cn1 [Trifluoroacetate of WX-034] | 
3 | 316 nM | 0.1 nM | > 10000 nM | COc1c(Nc2cc(NC(=O)C3CC3)ncc2C(N)=O)cccc1-c1ncc(S(=O)(=O)C(C)C)cn1 [WX-033] | 
